Measured values published in patent US20150144521A1, “STORAGE AIDS COMPRISING PLANT PROTECTANTS AND THEIR USE” (priority 2012, published 2015).

How the values were obtained:
[1] = 25° C.; cited from earlier work
[2] = tested on: potatoes; test: sprouting on continued storage after large-scale treatment; format: in vivo
Procedure: Three to four repeated treatments of the product being stored are carried out in practice at regular time intervals.
A storage aid is therefore also suitable for sprouting suppression in seed potatoes for a limited period of time.
Therefore, seed potatoes must not, in principle, ever be treated directly with a growth regulator.

[3] = losses due to evaporation (FIG. 1); format: physicochemical; details: 30° C., after 30 days
Text: FIG. 1 is a graph showing losses of isopropyl-N-(m-chlorophenyl) carbamate due to evaporation;

Molecule	vapor pressure [1] [mbar]	sprouting ability after conventional intensive hot fumigation (FIG. 5) [2]	losses due to evaporation [3] [%]
trifluoromethyl-2-thienyl carbamate	5.5		
CC(C)OC(=O)Nc1cccc(Cl)c1 [CIPC, isopropyl-N-(m-chlorophenyl)-carbamate]		completely suppressed	0.03
CC(C)OC(=O)Nc1ccccc1 [IPC, isopropyl-N-phenyl carbamate]	0.144		
CCOC(=O)Nc1ccccn1 [ethyl-2-pyridyl carbamate]	0.1		
